Data published in ChEMBL document CHEMBL4806958, “Anti-cancer/anti-fibrosis compounds” (2020).

Experiments:
[1] = molecular target: Casein kinase II subunit alpha (Homo sapiens, UniProt P68400); test: Inhibition of CSNK2A1(unknown origin) using Ser/Thr 11 as substrate incubated for 60 mins in presence of ATP by Z'-LYTE assay
[2] = molecular target: Homeodomain-interacting protein kinase 2 (Homo sapiens, UniProt Q9H2X6); test: Inhibition of HIPK2 (unknown origin) using Ser/Thr 09 as substrate incubated for 60 mins in presence of ATP by Z'-Lyte assay
Chain of Homeodomain-interacting protein kinase 2 (Q9H2X6 whole entry): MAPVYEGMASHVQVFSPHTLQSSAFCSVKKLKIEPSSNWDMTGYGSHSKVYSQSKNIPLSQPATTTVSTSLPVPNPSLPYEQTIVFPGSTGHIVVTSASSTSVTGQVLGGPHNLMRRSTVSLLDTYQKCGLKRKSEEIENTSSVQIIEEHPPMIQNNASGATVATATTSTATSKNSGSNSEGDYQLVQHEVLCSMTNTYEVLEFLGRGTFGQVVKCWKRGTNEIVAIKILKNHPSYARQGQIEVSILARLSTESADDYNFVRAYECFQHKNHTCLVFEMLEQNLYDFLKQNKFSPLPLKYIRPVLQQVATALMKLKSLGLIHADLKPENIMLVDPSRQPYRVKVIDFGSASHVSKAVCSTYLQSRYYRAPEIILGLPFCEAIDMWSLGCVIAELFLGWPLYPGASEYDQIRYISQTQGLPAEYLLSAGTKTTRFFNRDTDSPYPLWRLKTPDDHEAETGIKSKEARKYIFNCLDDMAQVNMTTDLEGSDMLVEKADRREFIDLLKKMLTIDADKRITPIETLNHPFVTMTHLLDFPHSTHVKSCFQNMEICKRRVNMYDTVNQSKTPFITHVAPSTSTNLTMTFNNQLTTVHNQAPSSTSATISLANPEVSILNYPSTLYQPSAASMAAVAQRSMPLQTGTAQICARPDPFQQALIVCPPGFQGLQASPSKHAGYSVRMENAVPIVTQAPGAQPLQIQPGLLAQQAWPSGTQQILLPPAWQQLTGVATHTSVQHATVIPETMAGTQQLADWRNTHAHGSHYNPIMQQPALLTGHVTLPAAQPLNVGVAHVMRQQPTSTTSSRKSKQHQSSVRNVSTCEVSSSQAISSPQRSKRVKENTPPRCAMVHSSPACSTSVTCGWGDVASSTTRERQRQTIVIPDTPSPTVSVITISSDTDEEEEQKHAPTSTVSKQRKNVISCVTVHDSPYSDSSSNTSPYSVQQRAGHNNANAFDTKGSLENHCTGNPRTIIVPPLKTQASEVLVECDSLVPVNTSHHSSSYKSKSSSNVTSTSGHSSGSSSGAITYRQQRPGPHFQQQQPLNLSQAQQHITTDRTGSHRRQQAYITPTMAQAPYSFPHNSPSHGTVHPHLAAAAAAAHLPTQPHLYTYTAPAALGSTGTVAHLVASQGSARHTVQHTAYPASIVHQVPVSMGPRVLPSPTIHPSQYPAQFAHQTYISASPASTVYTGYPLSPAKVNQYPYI

Chain of Casein kinase II subunit alpha (P68400 whole entry): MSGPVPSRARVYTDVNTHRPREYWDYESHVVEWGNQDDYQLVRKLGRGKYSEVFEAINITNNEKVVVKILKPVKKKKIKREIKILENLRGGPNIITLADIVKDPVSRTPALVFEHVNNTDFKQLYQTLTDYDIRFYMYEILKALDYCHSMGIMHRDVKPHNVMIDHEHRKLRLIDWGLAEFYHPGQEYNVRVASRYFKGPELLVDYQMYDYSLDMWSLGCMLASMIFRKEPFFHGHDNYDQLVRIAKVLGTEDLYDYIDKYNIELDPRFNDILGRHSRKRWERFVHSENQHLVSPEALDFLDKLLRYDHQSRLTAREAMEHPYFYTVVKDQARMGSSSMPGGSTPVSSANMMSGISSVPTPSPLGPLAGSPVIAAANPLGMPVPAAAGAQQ

| IC50 [1] | IC50 [2] | SMILES |
| --- | --- | --- |
| < 300 nM |  | O=C(O)c1ccc2c(ccc3ccnc(Cl)c32)c1 |
| < 300 nM |  | O=C(O)c1ccc2c(c1)cc(Nc1ccc(Cl)cc1)c1ccncc12 |
| < 300 nM | < 300 nM | CC[C@@H](C)Nc1cc2cc(C(=O)O)ccc2c2cnccc12 |
| < 300 nM |  | O=C(O)c1ccc2c(c1)cc(NC1CCCCC1)c1ccncc12 |
| < 300 nM |  | CC[C@H](C)Nc1cc2cc(C(=O)O)ccc2c2cnccc12 |
| < 300 nM |  | O=C(O)c1ccc2c(c1)cc(-c1cccnc1)c1ccncc12 |
| < 300 nM |  | O=C(O)c1ccc2c(c1)cc(-c1cc[nH]n1)c1ccncc12 |
